Experimental data: the NIST ThermoML archive (doi:10.1016/j.jct.2016.01.021)

Experiment: xn = mol fraction of the nth substance listed
Conditions: 100 kPa, Liquid; for viscosity: Capillary tube (Ostwald / Ubbelohde) method; for mass density: Vibrating tube method

CCCCCCCC(=O)OCC [ethyl octanoate] + CCCCCCCCCCCCCCCC
Conditions | mass density [kg/m3] | viscosity [mPa·s]
298.15 K, x2 = 0 | 862.64 | 1.428
298.15 K, x2 = 0.1 | 848.72 | 1.539
298.15 K, x2 = 0.2 | 836.2 | 1.651
298.15 K, x2 = 0.3 | 824.94 | 1.776
298.15 K, x2 = 0.4 | 814.77 | 1.916
298.15 K, x2 = 0.4999 | 805.52 | 2.065
298.15 K, x2 = 0.6 | 797.09 | 2.229
298.15 K, x2 = 0.7 | 789.38 | 2.408
298.15 K, x2 = 0.8 | 782.33 | 2.608
298.15 K, x2 = 0.9 | 775.88 | 2.84
303.15 K, x2 = 0 | 858.34 | 1.313
303.15 K, x2 = 0.1 | 844.55 | 1.407
303.15 K, x2 = 0.2 | 832.14 | 1.513
303.15 K, x2 = 0.3 | 820.97 | 1.623
303.15 K, x2 = 0.4 | 810.9 | 1.744
303.15 K, x2 = 0.4999 | 801.74 | 1.875
303.15 K, x2 = 0.6 | 793.39 | 2.019
303.15 K, x2 = 0.7 | 785.75 | 2.175
303.15 K, x2 = 0.8 | 778.76 | 2.348
303.15 K, x2 = 0.9 | 772.36 | 2.543
308.15 K, x2 = 0 | 854.04 | 1.211
308.15 K, x2 = 0.1 | 840.37 | 1.296
308.15 K, x2 = 0.2 | 828.07 | 1.387
308.15 K, x2 = 0.3 | 817.01 | 1.49
308.15 K, x2 = 0.4 | 807.03 | 1.596
308.15 K, x2 = 0.4999 | 797.95 | 1.712
308.15 K, x2 = 0.6 | 789.68 | 1.837
308.15 K, x2 = 0.7 | 782.11 | 1.974
308.15 K, x2 = 0.8 | 775.18 | 2.124
308.15 K, x2 = 0.9 | 768.84 | 2.291
313.15 K, x2 = 0 | 849.72 | 1.121
313.15 K, x2 = 0.1 | 836.18 | 1.197
313.15 K, x2 = 0.2 | 824 | 1.279
313.15 K, x2 = 0.3 | 813.04 | 1.371
313.15 K, x2 = 0.4 | 803.16 | 1.467
313.15 K, x2 = 0.4999 | 794.16 | 1.57
313.15 K, x2 = 0.6 | 785.97 | 1.68
313.15 K, x2 = 0.7 | 778.47 | 1.801
313.15 K, x2 = 0.8 | 771.61 | 1.933
313.15 K, x2 = 0.9 | 765.33 | 2.083
318.15 K, x2 = 0 | 845.39 | 1.042
318.15 K, x2 = 0.1 | 831.98 | 1.11
318.15 K, x2 = 0.2 | 819.92 | 1.185
318.15 K, x2 = 0.3 | 809.06 | 1.267
318.15 K, x2 = 0.4 | 799.27 | 1.351
318.15 K, x2 = 0.4999 | 790.37 | 1.444
318.15 K, x2 = 0.6 | 782.25 | 1.543
318.15 K, x2 = 0.7 | 774.83 | 1.65
318.15 K, x2 = 0.8 | 768.04 | 1.766
318.15 K, x2 = 0.9 | 761.81 | 1.897
323.15 K, x2 = 0 | 841.06 | 0.971
323.15 K, x2 = 0.1 | 827.77 | 1.034
323.15 K, x2 = 0.2 | 815.83 | 1.101
323.15 K, x2 = 0.3 | 805.08 | 1.172
323.15 K, x2 = 0.4 | 795.39 | 1.251
323.15 K, x2 = 0.4999 | 786.56 | 1.334
323.15 K, x2 = 0.6 | 778.53 | 1.422
323.15 K, x2 = 0.7 | 771.18 | 1.517
323.15 K, x2 = 0.8 | 764.46 | 1.62
323.15 K, x2 = 0.9 | 758.3 | 1.736
